The values below come from article PMC5590075, “Synthesis, Antimicrobial, and Antioxidant Activities of Chalcogen-Containing Nitrone Derivatives from (R)-citronellal” (Medicines, 2017).

SMILES strings stand for the structures. Values after ≈ are worked out from the molar mass of the structure shown.

As usually defined, the MIC is the least concentration at which growth counts as inhibited. As a reminder, the zone of inhibition is the extent of the growth-free halo in a diffusion test. A lower zone of inhibition goes with little suppression of growth.

In assay [1] the test system is P. fluorescens. Further details: method as in doi:10.1016/j.lwt.2014.05.036. The following applies: cited from earlier work.
Assay [2] has as its system S. dysenteriae. Set-up: method as in doi:10.1016/j.lwt.2014.05.036. The note with it: cited from earlier work.
Assay [3] concerns S. aureus. Set-up: method as in doi:10.1016/j.lwt.2014.05.036. The note with it: cited from earlier work.
Assay [4] concerns L. monocytogenes. Further details: method as in doi:10.1016/j.lwt.2014.05.036. The note with it: cited from earlier work.
Assay [5] relates to S. Typhimurium. Further details: method as in doi:10.1016/j.lwt.2014.05.036. The note with it: cited from earlier work.
The subject of assay [6] is E. coli. Set-up: method as in doi:10.1016/j.lwt.2014.05.036. The note with it: cited from earlier work.
Details of assay [7]: method as in doi:10.1016/j.foodcont.2011.06.017. The note with it: cited from earlier work.
On the set-up of assay [8]: method as in doi:10.1016/j.foodcont.2011.06.017. The note with it: cited from earlier work. The source holds these as a separate data set.
Details of assay [9]: method as in doi:10.1016/j.foodcont.2011.06.017. The note with it: cited from earlier work. The source holds these as a separate data set.
In assay [10] the test system is Listeria monocytogenes ATCC 7644. Briefly: agar disk diffusion test. In kind it is cell-based. The note with it: Listeria monocytogenes, ATCC7644; L. monocytogenes, 1.0 × 10^8 CFU.mL^−1; 20 μL compound diluted in DMSO (1:1) per 6 mm disc; streptomycin 10 µg; mean of two repetitions. An excerpt:
(§1) To evaluate the antimicrobial potential of the synthesized compounds, the following reference strains of bacteria, that are economically important in foods, were employed: Gram-positive Listeria monocytogenes ATCC 7644, Staphylococcus aureus ATCC 25923, and Bacillus cereus ATCC 11778; Gram-negative Salmonella Typhimurium ATCC 14028, Escherichia coli O157: H7 NCTC 12900 and the clinically important Pseudomonas aeruginosa ATCC 15442.
(§2) The antimicrobial activity assay using the disk diffusion test was realized using the methodology that is recommended by the Clinical Laboratory Standards Institute (CLSI). The determination of the minimum inhibitory concentration (MIC) and minimum bactericidal concentration (MBC) was performed using the macro dilution tube method, in accordance with Rota et al., with modifications. Details of these assays are provided in the Supplemental Material. […]
(§3) 2.1. Antimicrobial activity assay using the disk diffusion test
(§4) The disk diffusion test followed the methodology recommended by the Clinical Laboratory Standards Institute CLSI [4]. The inoculum was standardized by standard McFarland to the concentration of 10^8 CFU.mL−1 and spread on the surface of a Petri dish containing Mueller‐Hinton (MH) agar. Then, the paper disc (6 mm) was put on a plate impregnated with 20 μL of the testing compound previously diluted in DMSO (1:1) and incubated at 37 °C for 24 hours. Zone of inhibition ≥20 mm were considered as strong inhibition, <20–12 mm as moderate inhibition, and <12 mm no inhibition. A positive control with streptomycin antibiotic (10 μg) and a negative one, with paper discs impregnated with distilled water, were used […]
(§5) 2.4. Radical Scavenging Activity […]
(§6) The ABTS radical scavenging activity was determined according to the method described by Erel. Different concentrations of compounds 5a–d and 10 (10–500 μ M) were mixed with the ABTS+ solution, and the decrease in the absorbance at 734 nm was recorded.
Background: A growth-free zone around the sample is the usual read-out of agar diffusion tests.

The test system of assay [11] is Pseudomonas aeruginosa ATCC 15442. Briefly: agar disk diffusion test. In kind it is cell-based. The following applies: Pseudomonas aeruginosa, ATCC15442; P. aeruginosa, 1.0 × 10^8 CFU.mL^−1; 20 μL compound diluted in DMSO (1:1) per 6 mm disc; streptomycin 10 µg; mean of two repetitions.
From the text: as §1, §2, §3, §4, §5, §6

The test system of assay [12] is Salmonella Typhimurium ATCC 14028. The assay is described as follows: agar disk diffusion test. In kind it is cell-based. The note with it: Salmonella enterica; S. Typhimurium, 1.0 × 10^8 CFU.mL^−1; 20 μL compound diluted in DMSO (1:1) per 6 mm disc; streptomycin 10 µg; mean of two repetitions.
From the text: as §1, §2, §3, §4, §5, §6

Assay [13] has as its system Staphylococcus aureus ATCC 25923. Briefly: agar disk diffusion test. In kind it is cell-based. The following applies: Staphylococcus aureus, ATCC25923; S. aureus, 1.0 × 10^8 CFU.mL^−1; 20 μL compound diluted in DMSO (1:1) per 6 mm disc; streptomycin 10 µg; mean of two repetitions.
From the text: as §1, §2, §3, §4, §5, §6

Assay [14] has as its system Escherichia coli O157: H7 NCTC 12900. The assay is described as follows: agar disk diffusion test. It is filed as cell-based. The note with it: Escherichia coli, NCTC12900; E. coli O157:H7, 1.0 × 10^8 CFU.mL^−1; 20 μL compound diluted in DMSO (1:1) per 6 mm disc; streptomycin 10 µg; mean of two repetitions.
From the text: as §1, §2, §3, §4, §5, §6

For assay [15], the system named is Bacillus cereus ATCC 11778. Briefly: agar disk diffusion test. It is filed as cell-based. The following applies: Bacillus cereus, ATCC11778; B. cereus, 1.0 × 10^8 CFU.mL^−1; 20 μL compound diluted in DMSO (1:1) per 6 mm disc; streptomycin 10 µg; mean of two repetitions.
From the text: as §1, §2, §3, §4, §5, §6

`CC(C)=CCCC(C)(CC=O)Sc1ccc(Cl)cc1` (stereo not drawn) [3-(p-chlorophenyl)thio citronellal]: the MIC is 4.2 mM (≈ 1250 µg/mL) in assay [1]; 4.2 mM (≈ 1250 µg/mL) in assay [2]; 2.1 mM (≈ 623 µg/mL) in [3]; 2.1 mM (≈ 623 µg/mL) in assay [4]; 4.2 mM (≈ 1250 µg/mL) in [5]; 4.2 mM (≈ 1250 µg/mL) in [6].

In the case of `CC(C)=CCC[C@@H](C)C(C=O)[Se]c1ccccc1` (stereo partly drawn) [3b, α-phenylselenocitronellal], the “activity in the DPPH assay (in words)” value in assay [7] was “inactive”. Further, the “activity in the ABTS assay (in words)” value in assay [8] was “inactive”. Further, the “concentrations with significant reducing power in the FRAP assay” value in assay [9] is reported as at least 500 mM.

`[H]/N=C(/N)N[C@H]1[C@H](O)[C@@H](O)[C@H](O[C@@H]2O[C@@H](C)[C@](O)(C=O)[C@H]2O[C@@H]2O[C@@H](CO)[C@H](O)[C@@H](O)[C@@H]2NC)[C@@H](N/C(N)=N\[H])[C@@H]1O` [Streptomycin, reference compound]: the zone of inhibition at 10 µg/disc in assay [10] came to 21 mm; in assay [11], 13 mm; in [12], 18 mm; in assay [13], 21 mm; in [14], 24 mm; in assay [15], 26 mm.

`CC(C)=CCC[C@@H](C)CC=O` [compound 1, (R)-citronellal]: the “activity in the DPPH assay (in words)” value in assay [7] is “inactive”. For the same molecule, in assay [8], the “activity in the ABTS assay (in words)” value was “inactive”. Further, the “effect in the FRAP assay (in words)” value in [9] (at the same concentrations (equal and higher than 500 mM)) is listed as “did not present any effect”.
